Reference: ChEMBL document CHEMBL5532655, “Discovery of (R)-4-(8-methoxy-2-methyl-1-(1-phenylethy)-1H-imidazo[4,5-c]quinnolin-7-yl)-3,5-dimethylisoxazole as a potent and selective BET inhibitor for treatment of acute myeloid leukemia (AML) guided by FEP calculation” (Eur J Med Chem, 2024)
One block for each molecule: values may come before it. Active and inactive are the calls of the source. No cut-off for these calls is given here.

What was measured:
[1] = target: Bromodomain testis-specific protein (Homo sapiens) (UniProt Q58F21); conditions: time 30.0 min
[2] = target: Bromodomain-containing protein 2 (Homo sapiens) (UniProt P25440); conditions: time 30.0 min
MV4-11 [3] = experiment: Induction of apoptosis in human MV4-11 cells assessed as viable cells at 2.5 uM incubated for 24 hrs by annexin V-FITC/PI staining based flow cytometric analysis (reference value: 97%); type: functional; conditions: Homo sapiens, MV4-11, read-out: Activity
MV4-11 [4] = experiment: Induction of apoptosis in human MV4-11 cells assessed as viable cells at 5 uM incubated for 24 hrs by annexin V-FITC/PI staining based flow cytometric analysis (reference value: 97%); type: functional; conditions: Homo sapiens, MV4-11, read-out: Activity
[5] = Apparent oral clearance in Sprague-Dawley rat at 10 mg/kg,po administration measured upto 24 hrs by LC-MS/MS analysis; type: ADME, organism-based; conditions: in vivo
MV4-11 [6] = experiment: Induction of cell cycle arrest in human MV4-11 cells assessed as accumulation of cells at G0/G1 phase at 0.3125 uM incubated for 24 hrs by propidium iodide staining flow cytometric analysis (reference value: 37.64 %); type: functional
MV4-11 [7] = experiment: Induction of apoptosis in human MV4-11 cells assessed as viable cells at 10 uM incubated for 24 hrs by annexin V-FITC/PI staining based flow cytometric analysis (reference value: 97%); type: functional; conditions: Homo sapiens, MV4-11, read-out: Activity
[8] = MRTinfinity in Sprague-Dawley rat at 10 mg/kg,po administration measured upto 24 hrs by LC-MS/MS analysis; type: ADME, organism-based; conditions: in vivo
MV4-11 [9] = experiment: Induction of cell cycle arrest in human MV4-11 cells assessed as accumulation of cells at G2/M phase at 5 uM incubated for 24 hrs by propidium iodide staining flow cytometric analysis (reference value: 18 %); type: functional
MV4-11 [10] = experiment: Induction of apoptosis in human MV4-11 cells assessed as upregulation of PARP expression at 0.3125 to 2.5 uM incubated for 48 hrs by Western blotting analysis; type: functional, cell-based; conditions: dose 0.3125-2.5 µM
MV4-11 [11] = experiment: Induction of apoptosis in human MV4-11 cells assessed as upregulation of cleaved PARP expression at 0.3125 to 2.5 uM incubated for 48 hrs by Western blotting analysis; type: functional, cell-based; conditions: dose 0.3125-2.5 µM
MV4-11 [12] = experiment: Induction of cell cycle arrest in human MV4-11 cells assessed as accumulation of cells at S phase at 1.25 uM incubated for 24 hrs by propidium iodide staining flow cytometric analysis (reference value: 43.94 %); type: functional
MV4-11 [13] = experiment: Induction of apoptosis in human MV4-11 cells assessed as downregulation of CDK6 expression at 500 nM hrs by Western blotting analysis; type: functional, cell-based; conditions: TDE = time-dependent effect
MV4-11 [14] = experiment: Induction of cell cycle arrest in human MV4-11 cells assessed as accumulation of cells at S phase at 0.3125 uM incubated for 24 hrs by propidium iodide staining flow cytometric analysis (reference value: 43.94 %); type: functional
MV4-11 [15] = experiment: Induction of apoptosis in human MV4-11 cells assessed as necrotic cells at 10 uM incubated for 24 hrs by annexin V-FITC/PI staining based flow cytometric analysis (reference value: 2.35 %); type: functional
MV4-11 [16] = experiment: Induction of apoptosis in human MV4-11 cells assessed as upregulation of p21 expression at 0.3125 to 2.5 uM incubated for 48 hrs by Western blotting analysis; type: functional, cell-based; conditions: dose 0.3125-2.5 µM
[17] = AUC (0-t) in Sprague-Dawley rat at 10 mg/kg,po administration measured upto 24 hrs by LC-MS/MS analysis; type: ADME, organism-based; conditions: in vivo
MV4-11 [18] = experiment: Antitumor activity against human MV4-11 cells xenografted in BALB/c mouse assessed as tumor growth inhibition at 30 mg/kg administration relative to control; type: functional; conditions: read-out: TGI
MV4-11 [19] = experiment: Antitumor activity against human MV4-11 cells xenografted in BALB/c mouse assessed as tumor growth inhibition at 50 mg/kg administration relative to control; type: functional; conditions: read-out: TGI
MV4-11 [20] = experiment: Induction of cell cycle arrest in human MV4-11 cells assessed as accumulation of cells at G2/M phase at 0.625 uM incubated for 24 hrs by propidium iodide staining flow cytometric analysis (reference value: 18 %); type: functional
MV4-11 [21] = experiment: Induction of apoptosis in human MV4-11 cells assessed as early apoptotic cells at 2.5 uM incubated for 24 hrs by annexin V-FITC/PI staining based flow cytometric analysis (reference value: 0%); type: functional
MV4-11 [22] = experiment: Induction of apoptosis in human MV4-11 cells assessed as necrotic cells at 2.5 uM incubated for 24 hrs by annexin V-FITC/PI staining based flow cytometric analysis (reference value: 2.35 %); type: functional
MV4-11 [23] = experiment: Induction of apoptosis in human MV4-11 cells assessed as early apoptotic cells at 5 uM incubated for 24 hrs by annexin V-FITC/PI staining based flow cytometric analysis (reference value: 0%); type: functional
[24] = AUC (0-infinity) in Sprague-Dawley rat at 10 mg/kg,po administration measured upto 24 hrs by LC-MS/MS analysis; type: ADME, organism-based; conditions: in vivo
MV4-11 [25] = experiment: Induction of apoptosis in human MV4-11 cells assessed as downregulation of c-Myc expression at 500 nM hrs by Western blotting analysis; type: functional, cell-based; conditions: TDE = time-dependent effect
MV4-11 [26] = experiment: Induction of cell cycle arrest in human MV4-11 cells assessed as accumulation of cells at G0/G1 phase at 1.25 uM incubated for 24 hrs by propidium iodide staining flow cytometric analysis (reference value: 37.64 %); type: functional
MV4-11 [27] = experiment: Induction of cell cycle arrest in human MV4-11 cells assessed as accumulation of cells at G2/M phase at 2.5 uM incubated for 24 hrs by propidium iodide staining flow cytometric analysis (reference value: 18 %); type: functional
MV4-11 [28] = experiment: Induction of apoptosis in human MV4-11 cells assessed as upregulation of cleaved PARP expression at 500 nM hrs by Western blotting analysis; type: functional, cell-based; conditions: TDE = time-dependent effect
MV4-11 [29] = experiment: Induction of apoptosis in human MV4-11 cells assessed as viable cells at 0.625 uM incubated for 24 hrs by annexin V-FITC/PI staining based flow cytometric analysis (reference value: 97%); type: functional; conditions: Homo sapiens, MV4-11, read-out: Activity
MV4-11 [30] = experiment: Induction of apoptosis in human MV4-11 cells assessed as late apoptotic cells at 2.5 uM incubated for 24 hrs by annexin V-FITC/PI staining based flow cytometric analysis (reference value: 0.04 %); type: functional
MV4-11 [31] = experiment: Induction of cell cycle arrest in human MV4-11 cells assessed as accumulation of cells at G2/M phase at 0.3125 uM incubated for 24 hrs by propidium iodide staining flow cytometric analysis (reference value: 18 %); type: functional
MV4-11 [32] = experiment: Induction of cell cycle arrest in human MV4-11 cells assessed as accumulation of cells at G0/G1 phase at 2.5 uM incubated for 24 hrs by propidium iodide staining flow cytometric analysis (reference value: 37.64 %); type: functional
[33] = Apparent volume of distribution during terminal phase in Sprague-Dawley rat at 10 mg/kg,po administration measured upto 24 hrs by LC-MS/MS analysis; type: ADME, organism-based; conditions: in vivo, read-out: Vz/F
MV4-11 [34] = experiment: Induction of cell cycle arrest in human MV4-11 cells assessed as accumulation of cells at S phase at 5 uM incubated for 24 hrs by propidium iodide staining flow cytometric analysis (reference value: 43.94 %); type: functional
MV4-11 [35] = experiment: Induction of apoptosis in human MV4-11 cells assessed as upregulation of PARP expression at 500 nM hrs by Western blotting analysis; type: functional, cell-based; conditions: TDE = time-dependent effect

Chain of Bromodomain-containing protein 2 (Homo sapiens) (P25440 whole entry, looked up): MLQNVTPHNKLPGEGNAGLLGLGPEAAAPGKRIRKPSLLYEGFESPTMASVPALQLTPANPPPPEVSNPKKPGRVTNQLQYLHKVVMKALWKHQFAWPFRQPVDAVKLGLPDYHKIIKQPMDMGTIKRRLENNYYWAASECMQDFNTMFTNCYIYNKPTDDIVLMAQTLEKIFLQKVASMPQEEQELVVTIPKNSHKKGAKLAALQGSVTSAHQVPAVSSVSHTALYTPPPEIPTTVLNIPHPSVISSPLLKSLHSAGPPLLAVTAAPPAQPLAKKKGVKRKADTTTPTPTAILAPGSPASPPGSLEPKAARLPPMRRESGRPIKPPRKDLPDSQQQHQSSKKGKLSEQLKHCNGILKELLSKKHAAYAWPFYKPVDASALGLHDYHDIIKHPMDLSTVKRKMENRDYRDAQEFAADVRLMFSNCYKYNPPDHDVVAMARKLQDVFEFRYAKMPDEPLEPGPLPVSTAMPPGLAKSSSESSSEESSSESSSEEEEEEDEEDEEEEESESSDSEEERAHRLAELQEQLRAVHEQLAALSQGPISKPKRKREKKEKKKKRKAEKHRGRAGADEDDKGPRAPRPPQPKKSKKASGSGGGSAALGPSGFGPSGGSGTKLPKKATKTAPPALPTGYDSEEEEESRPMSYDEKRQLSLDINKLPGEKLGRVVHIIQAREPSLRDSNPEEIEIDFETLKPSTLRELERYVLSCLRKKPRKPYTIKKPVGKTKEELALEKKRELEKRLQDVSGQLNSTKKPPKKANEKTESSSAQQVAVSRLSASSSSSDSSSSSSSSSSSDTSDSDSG

- ΔTm [1]: 5 °C
- ΔTm [2]: 5 °C
SMILES: COc1cc2c(cc1-c1c(C)n[nH]c1C)ncc1nc(C)n([C@H](C)c3ccccc3)c12

- CL/F [5]: 10.4 mL/min/kg
- MRT inf [8]: 5.86 h
- AUC(0-t) at 24 h [17]: 16000 ng·h/mL
- AUC(0-inf) [24]: 16000 ng·h/mL
- Vd/F [33]: 2.39 L/kg
SMILES: COc1cc2c(cc1-c1c(C)noc1C)ncc1nc(C)n([C@H](C)c3ccccc3)c12
- viability at 2.5 µM (MV4-11 [3]): 81.7%
- viability at 5 µM (MV4-11 [4]): 78.4%
- Activity (MV4-11 [6]): 48.98%
- viability at 10 µM (MV4-11 [7]): 73.5%
- Activity (MV4-11 [9]): 3.63%
- Activity (MV4-11 [10]): Active
- Activity (MV4-11 [11]): Active
- Activity (MV4-11 [12]): 23.31%
- Activity (MV4-11 [13]): Tde
- Activity (MV4-11 [14]): 44.55%
- Activity (MV4-11 [15]): 8%
- Activity (MV4-11 [16]): Active
- inhibition in vivo at 30 mg/kg (MV4-11 [18]): 55.1%
- inhibition in vivo at 50 mg/kg (MV4-11 [19]): 70.4%
- Activity (MV4-11 [20]): 16.18%
- Activity (MV4-11 [21]): 8.72%
- Activity (MV4-11 [22]): 8%
- Activity (MV4-11 [23]): 8.46%
- Activity (MV4-11 [25]): Tde
- Activity (MV4-11 [26]): 71.52%
- Activity (MV4-11 [27]): 7.33%
- Activity (MV4-11 [28]): Tde
- viability at 0.625 µM (MV4-11 [29]): 68.2%
- Activity (MV4-11 [30]): 9.68%
- Activity (MV4-11 [31]): 6.33%
- Activity (MV4-11 [32]): 72.14%
- Activity (MV4-11 [34]): 17.41%
- Activity (MV4-11 [35]): Tde
